Experiments:
cultured HUVECs = experiment: Surface-localized fibrinolytic activity (125I-labeled Glu-Pmg conversion to plasmin) in cultured HUVECs; type: cell-based, human; details: 1 hour preincubation; for surface-localized fibrinolytic activity, maximum increase: 0.001 μM, control 38.0 pmol/well; for surface-localized fibrinolytic activity, maximum increase / surface-localized fibrinolytic activity, peak: 24 hours after induction; for increase in fibrinolytic activity compared to control: measured 24 hours later; for surface-localized fibrinolytic activity, peak: 10 μM, control 38.0±4.0
Protocol: Human umbilical vein ECs (HUVECs) were obtained from fresh (discarded) umbilical cords by mild collagenase treatment (type 1, CLS) by the method of Jaffe et al (J. […] ECs were seeded into human fibronectin-coated Petri dishes (9.6 cm^2) or plastic flasks (25 cm^2) and grown to confluency. Cultures were maintained at 37° C. in a humidified 95% air, 5% CO2 atmosphere and re-fed every 48 hours with complete culture medium consisting of Medium 199 (M199) powdered medium containing L-glutamine and Earle's salt, 0.025 M HEPES buffer (pH 7.4), 0.0002 M fresh L-glutamine, 100 units/ml of penicillin, 100 μg/ml streptomycin, 10% heat-deactivated FBS, 90 μg/ml heparin and 50 μg/ml of unpurified ECGF. […] Cells were routinely counted using phase microscopy and a 0.5 mm×0.5 mm counting reticule. Individual HUVEC cultures were routinely examined for their purity and characterized as ECs by their uptake of Dil-Ac-LDL and typical monlayer “cobblestone” tight-packing morphology. Only individual cultures with 95% identifiable ECs were used in these studies. All alcohol induction studies were conducted with confluent cultured HUVECs (in 96-well plates) preincubated in the absence/presence of varying concentration of alcohol (0-0.1%, v/v) for one hour at 37° C., washed two times in DBPS, re-fed with complete 10% serum containing medium and then further incubated at 37° C. in the absence of alcohol for 24 hours. surface-localized fibrinolytic activity was measured as the conversion of ^125-labeled Glu-Pmg levels after 24 hours. All studies were conducted with confluent cultured HUVECs. The cells were preincubated in the absence/presence of varying dilutions (1:1000, 1:500, 1:250, 1:125, 1:62.5) of red wine, de-alcoholized red wine or grape juice for 1 hour at 37° C., washed two times with DPBS, re-fed with complete 10% serum-containing medium, and then further incubated at 37° C. in the absence of these compounds for 24 hours. Surface-localized fibrinolytic activity was measured as the conversion of ^125-labeled Glu-Pmg levels after 24 hours. All polyphenolic induction studies were conducted with confluent cultured HUVECs (in 96-well plates). The cells were preincubated in the absence/presence of varying concentrations (0.001-10 μM) of catechin, epicatechin, quercetin or resveratrol for 1 hour at 37° C., washed two times with DPBS, re-fed with complete 10% serum-containing medium, and then further incubated at 37° C. in the absence of these compounds for 24 hours. Surface-localized fibrinolytic activity was measured by the direct conversion of cell-bound ^125I-labeled Glu-Pmg hours after the initial induction period. […] The generation of either ^125I-labeled plasmin Mr 20-kDa light or Mr 83-kDa heavy chain formation was quantitated by phosphorimaging autoradiography after SDS-PAGE under reduced conditions. […] The cultures were then placed in a water bath at 37° C. to initiate the receptor-bound endogenous PA-mediated conversion of ^125I labeled Glu-Pmg to ^125I-labeled plasmin. Reactions were stopped after 1 and 10 minutes by the rapid addition of 40 μl of hot (56° C.) solubilizing buffer (4% sodium dodecyl sulfate (SDS), 10% glycerol and 0.2M Tris-HCl, pH 6.8). The total solubilized contents of each well containing generated ^125I-labeled plasmin were removed and reduced by the addition of 5% B-mercaptoethanol and boiling for 5 minutes. […] The radioactivity content of either the ^125I-labeled plasmin light- or heavy-chains was determined by quantitative phosphorimaging autoradiography. After electrophoresis, gels were dried and exposed in phosphorimaging cassettes for 16-18 hours. The amount of remaining ^125I-labeled Glu-Pmg and newly generated ^125I-labeled Mr 20-kDa plasmin light chain in each individual gel was quantitated by measuring the radioactivity content in each band by phosphorimaging autoradiography, using a Molecular Dynamics Series […] Phosphorimager in combination with ImageQuant software. […]

t-PA mRNA = t-PA mRNA expression in rat aortic endothelium by in situ hybridization after gavage; type: in vivo, Sprague Dawley rats; details: 6 hours after gavage; catechin 0.495, epicatechin 0.224, quercetin 0.033, resveratrol 0.0033 mg/kg; ethanol 1.25% v/v
Protocol: (§1) Rats used in in vivo studies were Sprague Dawley rats weighing 250 to 300 grams.
For in vivo studies, 18 male Sprague Dawley rats, 250-300 g, were intubated with Popper feeding tubes (20 gauge, 1.5 inches). The control group of three rats were gavaged with PBS in a final volume of 1 ml. Five experimental groups with three rats per groups were gavaged with 1 ml of PBS containing either individual phenolic (catechin, 0.495; epicatechin, 0.224; quercetin, 0.033; and resveratrol, 0.0033 mg/kg body weight), or ethanol 1.25% v/v, for final 0.05% blood level. These doses of phenolics and ethanol are equivalent, on a per kg basis, to the amount consumed in about 2 glasses (25 ml) of red wine by a 70 kg adult. The t-PA and u-PA mRNA expression was analyzed at 6 hours after treatment, when the rats were anesthetized with ketamine/rompin. The thoracic aorta was perfusion-fixed and paraffin embedded to evaluate the effects of ethanol and individual phenolics on the induction of t-PA and u-PA mRNA expression in vivo in the aortic endothelium using in situ hybridization using riboprobes.
To insure that the t-PA and u-PA sense and antisense riboprobes were specific for their respective mRNAs in tissue sections, the sequence-verified riboprobes were hybridized with purified rat liver RNA, rich in t-PA and u-PA mRNA.

PAI-1 mRNA = PAI-1 mRNA expression in rat thoracic aorta endothelial cells by in situ hybridization after gavage; type: in vivo; details: 6 hours after gavage; catechin 0.495, epicatechin 0.224, quercetin 0.033, resveratrol 0.0033 mg/kg; ethanol 1.25% v/v
Protocol: as §1
In in vivo studies of rat thoracic aorta, eighteen male rats were treated by gavage as indicated above. One control group of three rats was gavaged with 1 ml of saline. Five experimental groups with three rats per group were then gavaged with 1 ml saline containing one of the following: (i) 1.25% (v/v) ethanol, (i) 0.495 mg catechin per kg body weight, (iii) 0.224 mg epicatechin per kg body weight, (iv) 0.033 mg quercetin per kg body weight, or (v) 0.0033 mg resveratrol per kg body weight.
At 3 and 6 hours following gavage, the animals were anesthetized with ketamine/rompin (10 and 1.5 mg/100 g body weight, respectively). The portal vein was cannulated and the vasculature perfused with cold, heparinized saline for 5 minutes to remove blood. […] The thoracic aorta was perfused-fixed and paraffin embedded to evaluate the short-term effects of alcohol/phenolics on PA1-I mRNA expression using in situ hybridization techniques.

Compound	surface-localized fibrinolytic activity, maximum increase (cultured HUVECs) [pmol/well]	t-PA mRNA chromogenic signal intensity (antisense riboprobe) in aortic tissue sections vs PBS-treated animals (t-PA mRNA)	increase in fibrinolytic activity compared to control (cultured HUVECs; 0.05% (v/v) ethanol, p=0.05)	increase in fibrinolytic activity compared to control (cultured HUVECs; 0.1% (v/v) ethanol, p=0.0055)	expression of PAI-1 mRNA in endothelium of thoracic aorta (PAI-1 mRNA)	surface-localized fibrinolytic activity, peak (cultured HUVECs)
Oc1cc(O)c2c(c1)O[C@H](c1ccc(O)c(O)c1)[C@H](O)C2 [epicatechin]	89.0±4.0					
CCO [ethanol, reference compound]		more chromogenic signal intensity	about 1.5 fold	about 3 fold	significant decrease	
O=c1c(O)c(-c2ccc(O)c(O)c2)oc2cc(O)cc(O)c12 [quercetin]		more chromogenic signal intensity			markedly reduced	64.0±6.0
Oc1ccc(C=Cc2cc(O)cc(O)c2)cc1 [resveratrol]		more chromogenic signal intensity			markedly reduced	55.0±6.0
catechin	91.5±5.0	more chromogenic signal intensity			markedly reduced	
